Laboratory results from PMC6368365, “Didehydro-Cortistatin A Inhibits HIV-1 by Specifically Binding to the Unstructured Basic Region of Tat” (mBio, 2019).

Tests used:
[1] = biological target: T1, FLAG-Tat (Human immunodeficiency virus type 1 group M subtype B, UniProt P69697); assay: Confocal immunofluorescence of FLAG-Tat subcellular localization; type: cell-based, HIV-1; conditions: 100 nM dCA, HeLa-CD4-LTR-Luc cells
T1 construct: expressed in transfected cells; host or cells: HeLa-CD4-LTR-Luc
T1 sequence (P69697 whole entry): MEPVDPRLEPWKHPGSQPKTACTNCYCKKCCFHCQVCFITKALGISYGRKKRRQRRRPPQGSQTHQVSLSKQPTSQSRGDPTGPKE
Excerpt: If dCA were to bind the basic domain of Tat in its disordered form, then one would predict it might also bind to other basic peptide sequences and block their functions. The two well-known proteins that share a similar basic domain with Tat are HIV-1 Rev protein and the cellular protein Hexim-1 (Fig. 3A). As such, we investigated whether dCA could inhibit these similar basic domain functions. The basic domain of Rev is responsible for its nuclear localization ([31]); therefore, we assessed whether dCA could impact the subcellular localization of Rev (Fig. 3B) as previously shown for Tat ([10]). We transfected HeLa-CD4-LTR-Luc cells with a plasmid expressing FLAG-tagged Rev and assessed Rev localization in the presence of 100 nM dCA. […] Twenty-four hours later, cells were collected, and total, nuclear, and cytoplasmic mRNAs were extracted, reverse transcribed, and quantified by quantitative real-time PCR (qRT-PCR).
(A) Sequence of the basic domains of HIV Tat HXB3, HIV Rev Bru and intracellular Hexim-1. […] (C) Quantification of the nucleolar fluorescence of panel B using ImageJ. […] Total, nuclear, and cytoplasmic mRNAs were extracted, and viral messages were determined by qRT-PCR. […] (G) Quantification of nuclear fluorescence of panel F using ImageJ. […] Statistical significance was determined using one-way ANOVA with post hoc Tukey’s test. ns, not significant; ***, P < 0.0001; **, P < 0.001. […]

[2] = biological target: T2, HIV Tat HXB3 (Human immunodeficiency virus type 1 group M subtype B, UniProt P69697); assay: Isothermal titration calorimetry of dCA binding to Tat; parameters: species or system HIV-1
T2 construct: pTatC6H-1 (NIH AIDS Reagent Program) plasmid encoding C-terminal 6xHistidine Tat1-86 (HXB3, subtype B); made in house; host or cells: E. coli BL21 (plasmid pTatC6H-1, NIH AIDS Reagent Program)
T2 sequence (P69697 whole entry): as above
Excerpt: Next, we studied the direct interaction of Tat with dCA using ITC. After gradual titration of Tat with dCA in the ITC cell, the integrated heat data of the dCA-Tat interaction were collected (Fig. 1G). This ITC titration curve fitted well with a single-site binding process with a nonlinear least-squares regression, allowing the determination of the association constant (Ka) and entropy (ΔS) and enthalpy (ΔH) changes, as well as the average number of binding sites (N). We determined a 1:1 binding stoichiometry with a Ka of ∼(9.39 ± 1.7) × 10^6 M^−1 (dissociation constant [Kd] = 100 nM). Moreover, dCA binds to Tat at 25°C with a negative (favorable) enthalpy of −3.5 ± 0.1 kcal mol^−1 and positive (favorable) entropy of +20.0 ± 0.5 cal mol^−1 K^−1. The favorable values of ΔH and ΔS are consistent with the characteristics of a combination of van der Waals, hydrophobic, and electrostatic interactions in the binding process. The difference between Tat/dCA affinity (ITC, 100 nM) and dCA inhibitory activity in cell-based assays (0.6 to 2 nM) (Table 2) ([10]) could be the result of the nature of the Tat-TAR feedback loop that amplifies activity in vivo; especially since the amount of Tat in vivo after infection is very low ([24]).
A detailed protocol for ITC is provided in Text S1.
Isothermal titration calorimetry. The measurements were conducted at 25 °C on a Microcal VP-ITC (Microcal, Inc.; Northampton MA). Titrations of HIV Tat HXB3 and HIV-1 TAR with dCA (or peptide, ^46SYGRKKRRQRRRPPQ^60) were done by injecting 250 μL into an isothermal sample chamber containing 1.5 mL HIV Tat HXB3 or HIV-1 TAR solution that was 10 μM in strand. Each experiment of this type was accompanied by the corresponding control experiment in which peptide or dCA injected into a solution of buffer alone. The duration of each injection was 8 s and the delay between the injections was 300 s and 180 s, the initial delay prior to the first injection was 300 s. Each injection generated a heat burst curve (microcalories/second vs. seconds) and the area under each curve was determined by integration [using the origin version 7.0 software (Microcal, Inc.; Northampton, MA)] to obtain the measure of the heat associated with that injection.

[3] = parameters: method as in PMID 22817991, PMID 29045830, PMID 25613133; conditions: cited from earlier work

With `CN(C)C1CC23CCC4(O2)C(=CCC2(C)C(c5ccc6ccncc6c5)=CCC24)C=C3C(O)C1O` (stereo not drawn) [dCA, didehydro-cortistatin A] the “subcellular localization of Tat” value [1] was “significant redistribution of Tat to the periphery of the nucleolus”, the Kd [2] was 100 nM and the “enthalpy (ΔH)” value ([2]; ITC, 25°C) was -3.5 ± 0.1 kcal/mol. For the same compound, the “entropy (ΔS)” value ([2]; ITC, 25°C) was “+20.0 ± 0.5 cal mol^−1 K^−1”, the “association constant (Ka)” value ([2]; ITC, 25°C, single-site fit) was “(9.39 ± 1.7) × 10^6 M^−1” and the solubility in water [3] was “very soluble in water”.
